Measurements: article PMC12615753, “Glutathione as a taste modulator: molecular mechanisms of interaction with umami and sweet taste receptors” (Food Chemistry: Molecular Sciences, 2025)

Target: T1, hTAS1R1/rTAS1R3(Mut2) (UniProt Q7RTX1+Q923K1, L72W/P67S/S282A/Y281H)
T1 sequence (Q7RTX1 21-841): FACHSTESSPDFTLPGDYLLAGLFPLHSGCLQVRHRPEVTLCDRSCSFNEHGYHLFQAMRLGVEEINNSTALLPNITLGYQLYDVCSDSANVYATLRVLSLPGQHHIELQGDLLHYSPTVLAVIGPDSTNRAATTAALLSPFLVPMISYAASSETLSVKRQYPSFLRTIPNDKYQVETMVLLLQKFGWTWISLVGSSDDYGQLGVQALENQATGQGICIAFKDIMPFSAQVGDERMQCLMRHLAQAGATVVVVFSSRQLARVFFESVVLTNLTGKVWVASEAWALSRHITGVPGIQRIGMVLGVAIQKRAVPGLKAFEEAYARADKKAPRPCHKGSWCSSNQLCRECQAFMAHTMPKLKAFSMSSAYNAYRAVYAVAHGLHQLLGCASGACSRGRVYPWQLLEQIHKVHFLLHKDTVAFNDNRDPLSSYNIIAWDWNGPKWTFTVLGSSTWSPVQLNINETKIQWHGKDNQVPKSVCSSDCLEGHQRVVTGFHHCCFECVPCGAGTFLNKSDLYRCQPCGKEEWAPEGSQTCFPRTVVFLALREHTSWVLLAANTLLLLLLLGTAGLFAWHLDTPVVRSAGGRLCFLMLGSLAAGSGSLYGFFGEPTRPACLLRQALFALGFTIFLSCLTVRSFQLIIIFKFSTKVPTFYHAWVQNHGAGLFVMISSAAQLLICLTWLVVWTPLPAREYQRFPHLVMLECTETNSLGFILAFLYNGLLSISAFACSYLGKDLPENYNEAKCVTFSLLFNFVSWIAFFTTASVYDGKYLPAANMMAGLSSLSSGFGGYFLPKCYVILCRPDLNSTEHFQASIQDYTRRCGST
T1 sequence (Q923K1 21-858 P67S/L72W/Y281H/S282A): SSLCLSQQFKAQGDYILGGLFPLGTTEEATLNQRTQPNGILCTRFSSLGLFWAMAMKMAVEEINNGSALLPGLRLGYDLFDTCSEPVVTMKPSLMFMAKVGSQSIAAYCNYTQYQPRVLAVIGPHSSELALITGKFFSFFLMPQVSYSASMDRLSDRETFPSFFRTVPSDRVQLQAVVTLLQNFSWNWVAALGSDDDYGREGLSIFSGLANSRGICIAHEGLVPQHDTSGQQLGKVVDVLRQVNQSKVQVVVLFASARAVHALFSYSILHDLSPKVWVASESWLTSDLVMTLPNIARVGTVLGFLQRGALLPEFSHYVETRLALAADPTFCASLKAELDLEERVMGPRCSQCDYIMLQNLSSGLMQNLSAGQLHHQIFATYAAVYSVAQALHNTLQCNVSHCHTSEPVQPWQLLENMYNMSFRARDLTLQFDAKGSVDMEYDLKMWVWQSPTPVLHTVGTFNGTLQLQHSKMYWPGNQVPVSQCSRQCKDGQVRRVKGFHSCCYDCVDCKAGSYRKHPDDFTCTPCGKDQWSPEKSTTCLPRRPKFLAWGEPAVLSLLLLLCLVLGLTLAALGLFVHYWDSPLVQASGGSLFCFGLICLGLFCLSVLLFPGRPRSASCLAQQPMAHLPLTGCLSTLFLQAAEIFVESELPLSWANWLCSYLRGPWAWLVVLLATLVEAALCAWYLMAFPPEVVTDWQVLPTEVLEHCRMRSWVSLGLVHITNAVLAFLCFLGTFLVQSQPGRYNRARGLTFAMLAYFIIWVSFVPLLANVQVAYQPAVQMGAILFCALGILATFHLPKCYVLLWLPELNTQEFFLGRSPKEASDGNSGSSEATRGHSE
Assay: Calcium assay, mutated rTAS1R3 co-expressed with hTAS1R1
Details: for response to the agonist alone: Mut2
Protocol: HEK293T/17 cells (ATCC CRL-11268) were seeded into clear bottom black 96-well plates coated with poly-D-lysine at a density of 32500 cells/well in 100 μL of DMEM containing 4.5 g/L glucose and supplemented with penicillin/streptomycin, 2 mM GlutaMAX and 10 % dialyzed fetal bovine serum. The plates were incubated for 24 h at 37 °C and 7.3 % CO2 in a humidified atmosphere. After incubation, using Fugene® 4 K (0.46 μL/well, Promega, Illkirch, France), the cells were transiently transfected with pcDNA3-hTAS1R1-WT (60 ng/well) or TAS1R1 mutants, pcDNA4-rTAS1R3 (60 ng/well), pcDNA3-Gα15i2 (10 ng/well), and pGP-CMV-GCaMP6s (Addgene #40753; 10 ng/well) as a genetically encoded calcium indicator. Twenty-four hours after transfection, the HEK293T/17 cells were rinsed with 100 μL of C1 buffer (130 mM NaCl, 5 mM KCl, 10 mM HEPES, 2 mM CaCl2, and 5 mM sodium pyruvate, pH 7.4). For each molecule tested, a semi-logarithmic concentration range was created consisting of seven increasing concentrations and a negative control (zero dose) made of buffer C1. Binary mixtures with different molecules were also made to study potential synergy. In this case, the concentration range was tested in C1 buffer containing the other molecules to be tested. The concentration ranges varied depending on the molecule, its solubility, and its effectiveness in activating the receptor. All the solutions were made on the day of the test to prevent any oxidation of the compounds. If needed, the pH of each solution was adjusted by to pH 7.4 by adding NaOH. After 20 s of basal fluorescence calcium measurement, the cells were stimulated via automatic injection of a range of compounds in eight wells, and the signal emission was recorded for an additional 70 s, via a FlexStation 3® fluorometric microplate reader (Molecular Devices, San Jose, CA, USA). As a control, molecules were also tested on mock-transfected cells with the empty vector. The emitted fluorescence was measured at a wavelength of 510 nm after excitation at 488 nm. Each measurement was performed in duplicate on the same plate, and the experiments were carried out at least four times. Kinetic data were acquired via SoftMax Pro 5.4.6 software (Molecular Devices). For each well, the decrease in the raw fluorescence as the relative fluorescence changed was calculated as ΔF/F0. Replicates were averaged for the wells subjected to the same stimuli, the background signal was subtracted, and the fluorescence changes in mock-transfected cells were subtracted. The half-maximal effective concentration (EC50) and maximal signal amplitude (max ∆F/F0) were calculated via non-linear regression of the sigmoidal function four-parameter logistic equation [f(x) = min + (max − min)/(1 + (x/EC50)^nH)] via SigmaPlot 15.0 software (Grafiti LLC, Palo Alto, CA, USA). […] For a clearer understanding of the results, the amplitude values in certain dose-response curves were normalized to max ∆F/F0 = 1, to eliminate the differences in amplitude.
We also selected other residues surrounding the cavity that differed from species to species and were not directly involved in ligand binding but rather in dynamic phenomena resulting in signal transmission, namely, four residues located less deep in the binding cavity that we mutated to their human counterparts (Y281H, S282A, P67S, L72W) (Mut2) (Fig. S3).

SMILES	EC50 [µM]	response to the agonist alone
N[C@@H](CCC(=O)N[C@@H](CS)C(=O)NCC(=O)O)C(=O)O [GSH, γ-L-glutamyl-L-cysteinyl-glycine]	1220 ± 488	abolished
N[C@@H](CCC(=O)O)C(=O)O [L-Glu, L-glutamic acid, reference compound]	–	abolished
CCCC(CCC)NC(=O)c1ccc2c(c1)OCO2 [S807, N-(heptan-4-yl)benzo[d][1,3]dioxole-5-carboxamide, reference compound]	1.59 ± 0.27	severely impaired
